PubChem BioAssay (NCI)
“And” between values parts separate entries of the source, which are not always exact repeats. Equal values may be shown once.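 Assay format: 96-well plates, 48-hour exposure. The concentration for 50% growth inhibition is given as GI50. TGI marks complete inhibition of growth.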

What was measured:
Assay in all cases: NCI-60 cell line screen, 48 h
DMS 273 small cell lung = tested on: DMS 273 small cell lung
NCI-H460 lung = tested on: NCI-H460 lung
SW-620 colon = tested on: SW-620 colon
MOLT-4 leukemia = tested on: MOLT-4 leukemia
HT29 colon = tested on: HT29 colon
SF-295 CNS = tested on: SF-295 CNS
M19-MEL melanoma = tested on: M19-MEL melanoma
COLO 205 colon = tested on: COLO 205 colon
OVCAR-4 ovarian = tested on: OVCAR-4 ovarian
DU-145 prostate = tested on: DU-145 prostate

SMILES	TGI (DMS 273 small cell lung)	TGI (NCI-H460 lung)	TGI (SW-620 colon)	TGI (MOLT-4 leukemia)	TGI (HT29 colon)	TGI (SF-295 CNS)	TGI (M19-MEL melanoma)	TGI (COLO 205 colon)	TGI (OVCAR-4 ovarian)	GI50 (DMS 273 small cell lung)	GI50 (NCI-H460 lung)	GI50 (SW-620 colon)	GI50 (MOLT-4 leukemia)	GI50 (HT29 colon)	GI50 (SF-295 CNS)	GI50 (COLO 205 colon)	GI50 (OVCAR-4 ovarian)	TGI (DU-145 prostate)	GI50 (DU-145 prostate)
CCN(CC)/[N+]([O-])=N/O	> 100 µM	> 100 µM	> 100 µM	> 100 µM	> 100 µM	> 100 µM	> 100 µM												
O=c1c(O)cccn1C1OC(CO)C(O)C1O (configuration not stated)	> 100 µM	> 100 µM			> 100 µM			> 100 µM	> 100 µM										
CCC1(OC(=O)CN)C(=O)OCc2c1cc1n(c2=O)Cc2cc3cc4c(cc3nc2-1)OCO4 (configuration not stated)	0.0656 µM and 0.358 µM	0.0159 µM and 0.0389 µM	> 100 µM and 10.2 µM	0.0113 µM	0.739 µM and 0.281 µM	0.0211 µM and < 0.01 µM	1.04 µM and 0.416 µM	2.56 µM and 1.78 µM		< 0.01 µM	< 0.01 µM	0.0116 µM and 0.0165 µM	< 0.01 µM	0.0245 µM and 0.0171 µM	< 0.01 µM	0.362 µM and 0.15 µM	0.216 µM and 0.0574 µM		
Cn1c(=O)n(CC2CS2)c2ccccc21 (configuration not stated)	> 100 µM	> 100 µM	> 100 µM	> 100 µM	> 100 µM	> 100 µM	> 100 µM	> 100 µM	> 100 µM										
CC(=O)NC(=O)NC1=NCCC(=O)N1CCc1c[nH]c2ccccc12		> 100 µM	> 100 µM	> 100 µM	> 100 µM	> 100 µM		> 100 µM	> 100 µM									> 100 µM	
COc1cc2c(c(OC)c1)C(=O)O[C@H](C)CCCC/C=C/C2		> 32.6 µM	22.9 µM	> 31.9 µM	> 71.8 µM	> 32.2 µM		31.8 µM	> 31.4 µM									27.1 µM	
C=CCc1ccccc1C1CC2(C(=O)OC)OC1C(C(=O)OC)=C2C(=O)OC (configuration not stated)		> 10 µM	> 10 µM	> 10 µM	> 10 µM	> 10 µM		> 10 µM	> 10 µM									> 10 µM	
O=C1c2ccccc2C(=O)c2nn(N=P(CP(=Nn3nc4c(n3)C(=O)c3ccccc3C4=O)(c3ccccc3)c3ccccc3)(c3ccccc3)c3ccccc3)nc21		> 100 µM	> 100 µM	> 100 µM	> 100 µM	> 100 µM		> 100 µM	> 100 µM									> 100 µM	
Cc1ccc(/C=N\NC(=O)c2ccncc2)s1		> 100 µM	> 100 µM	> 100 µM	> 100 µM	> 100 µM		> 100 µM	> 100 µM									> 100 µM	
C=C(CCOC)CCC1CCCCC(=C)[C@H]1O (some centres not stated)		> 100 µM	> 100 µM	> 100 µM	> 100 µM	> 100 µM		> 100 µM	> 100 µM									> 100 µM	
CN(C)CCNC(=O)c1cc(NC(=O)c2cc(NC(=O)CC/C=C3/[C@@H]4CC[C@H]3N=N4)cn2C)cn1C		> 100 µM	> 100 µM	> 100 µM	> 100 µM	> 100 µM		> 100 µM	> 100 µM									> 100 µM	
CNC(=O)N(CCC#N)CCCN(C(=O)N(C)C)c1ccccc1		> 100 µM	> 100 µM	> 100 µM	> 100 µM	> 100 µM		> 100 µM	> 100 µM									> 100 µM	
O=c1[nH]c2cc([N+](=O)[O-])c(Nc3c4ccccc4nc4ccccc34)c([N+](=O)[O-])c2[nH]1		7.75 µM	14.7 µM	5.02 µM	9.33 µM	11.2 µM		6.97 µM	13.9 µM									8.82 µM	
COc1cc(C)cc2c(-c3c(O)cc(O)c4c3C[C@H](C)N[C@H]4C)cc(-c3cc(-c4c(O)cc(O)c5c4C[C@H](C)N[C@H]5C)c4cc(C)cc(OC)c4c3O)c(O)c12		> 100 µM	> 100 µM	> 100 µM	> 100 µM	> 100 µM		> 100 µM	> 100 µM									> 100 µM	
CC1(C)[C@@H](OC(N)=O)C=C[C@]2(CO)[C@H]3CC[C@]4(C)[C@@H](c5ccc(=O)oc5)[C@@H](Cl)C[C@]4(O)C3=CC[C@@H]12		0.00128 µM	0.0145 µM		0.0154 µM	0.0144 µM		0.0244 µM	0.00372 µM		< 0.0001 µM	0.00262 µM	< 0.0001 µM	0.0024 µM	0.00268 µM	0.00578 µM	< 0.0001 µM	0.00117 µM	< 0.0001 µM
